{
  "source": "patent EP0340709A1",
  "about": "“(3-Chloro-methyl phenyl)ethyl amines, processes for their production and their use” (BASF Aktiengesellschaft, priority 1988, dated 1989)",
  "tested_on": "breitblättrigew unerwünschte Pflanzen",
  "experiment": "Greenhouse herbicide test, pre- and post-emergence treatment",
  "type": "in vivo",
  "conditions": "2,0 kg/ha a.S., Nachauflaufverfahren bzw. Vorauflaufverfahren, 2 bis 4 Wochen",
  "source_text": "Die herbizide Wirkfung der (3-Chlor-2-methylphenylethylamine der Formel I ließ sich durch Gewächshausversuche zeigen: Zur Aufzucht der Testpflanzen dienten Plastikblumentöpfe mit 300 cm³ Inhalt und lehmigem Sand mit etwa 3 % Humus als Substrat. Die Samen der Testpflanzen wurden nach Arten getrennt flach eingesät.\nBei Vorauflaufbehandlung wurden die aufbereiteten Wirkstoffe unmittelbar danach auf die Erdoberfläche aufgebracht. Sie wurden hierbei in Wasser als Verteilungsmittel suspendiert oder emulgiert und mittels fein verteilender Düsen gespritzt. Nach dem Aufbringen der Mittel wurden die Gefäße leicht beregnet, um Keimung und Wachstum in Gang zu bringen. Danach wurden die Gefäße mit durchsichtigen Plastikhauben abgedeckt, bis die Pflanzen angewaschsen waren. Diese Abdeckung fördert ein gleichmäßiges Keimen der Testpflanzen, sofern dies nicht durch die Wirkstoffe beeinträchtigt wird. Die Aufwandmengen betrugen 2,0 kg/ha.\nZum Zwecke der Nachauflaufbehandlung wurden die Testpflanzen je nach Wuchsform erst bis zu einer Wuchshöhe von 3 bis 15 cm angezüchtet und erst dann behandelt. Die Testpflanzen wurden dafür entweder direkt gesät und in den gleichen Gefäßen aufgezogen oder sie wurden als Keimpflanzen getrennt gezüchtet und einige Tage vor der Behandlung in die Versuchsgefäße verpflanzt. Die Aufwandmengen für die Nachauflaufbehandlung betrugen 2,0 kg Wirkstoff/ha. […]",
  "data": [
    {"smiles": "Cc1c(Cl)cccc1CCNC(=O)c1ccccc1", "note": "[Beispiel 3, N-Benzoyl-3-chlor-2-methylphenethylamin]", "values": [
      {"measurement": "herbizide Wirkung (Bekämpfung breitblättriger unerwünschter Pflanzen)", "result": "sehr gut"}
    ]}
  ]
}
